According to patent publication US10434095B2, “3-(1-oxo-4-((4-((3-oxomorpholino)methyl)benzyl)oxy)isoindolin-2-yl)piperidine-2,6-dione and isotopologues thereof” (Celgene Corporation, priority 2017, dated 2019):

What was measured:
[1] = tested on: primary human CD19+ B cells differentiating toward the plasma cell lineage; assay: B cell differentiation assay, cell phenotyping by flow cytometry (CD20/CD38); assay type: cell-based; conditions: in vitro primary human B cell differentiation culture; FIG. 1
Description: The effect of Compound I-S on the expression of transcription factors controlling plasma cell differentiation and immunoglobulin production using an in-vitro human B-cell differentiation culture system was invesitaged according to the procedures below:
Twenty-five milliliters human buffy coat were placed into each of two 50-mL conical tubes and 25 mL sterile Hank's buffered saline solution (HBSS) were added to each conical tube. The tubes were gently mixed by inverting. Fifteen milliliters of room temperature Ficoll-Paque Plus (GE Healthcare; Cat#17-1440-02) were placed into each of four 50-mL conical tubes. Then 25 mL of the buffy coat/HBSS mixture were layered gently and slowly on top of the Ficoll. […] The cell pellet was resuspended in 20 mL of B cell medium (Iscove's modified Dulbecco's medium+10% premium fetal bovine serum [PFBS], 1% penicillin/streptomycin [P/S], and 5 μg/mL human insulin), pipetted through a 30 micron filter, and an aliquot was counted using the cell counter.
Aliquots of purified PBMCs (2×10^8 cells) were placed in tubes, centrifuged at 1200 rpm for 5 minutes, and then supernatants were discarded. […] The enriched CD19^+ cells were resuspended in 5 mL of B cell medium and counted on the cell counter. […]
(§1) Cells were harvested and counted on the cell counter, an aliquot was removed for flow analysis, and the remaining cells were washed with phosphate buffered saline (PBS). […]

primary human B cells = assay: Cell viability analysis (Trypan blue live cell count) in B cell differentiation culture; assay type: cell-based; conditions: cell counts on Day 4 and Day 7 of the 7 day culture; FIG. 2
Description: (§2) Fresh B cell cocktail was prepared by adding 50 μg/mL of human transferrin to B cell medium (Iscove's medium with 10% PFBS, 1% P/S, and 5 μg/mL human insulin). The required volume of medium needed for the experiment was filtered through a 0.22 micron filter. Add B cell differentiation cocktail (final concentration): recombinant human Interleukin (IL)-2 (20 U/mL), IL-10 (50 ng/mL), IL-15 (10 ng/mL), CD40 Ligand/TNFSF5/histidine-tagged (50 ng/mL), polyHistidine mouse IgG1 antibody (5 μg/mL), and ODN 2006-Human TLR9 ligand (10 μg/mL) to cells. Five milliliters (1×10^5/mL) of CD19^+ B cells were added to each well of a 6-well flat-bottom plate (final cell count=5×10^5/well). Five microliters of a 1× solution of compound or DMSO was added to each test well (0.1% final concentration of DMSO) and incubated at 37{dot over (◯)}° C. for 4 days.
as §1
(§3) On Day 4 and Day 7 cells were harvested and counted on the cell counter. […]
To determine live cell count, B cells (see B Cell Differentiation Assay above) were stained with 0.4% Trypan blue (Gibco cat #15250) and live cells counted using the Countess automated cell counter (Invitrogen) in duplicate samples.

BCL-6 = assay: Gene expression (RT-PCR) in differentiated B cells; assay type: cell-based, human; conditions: Day 7 differentiated B cells, normalized to 0.1% DMSO; FIG. 3
Description: as §2
(§4) Cells were harvested and counted on the cell counter, an aliquot was removed for flow analysis, and the remaining cells were washed with phosphate buffered saline (PBS). Fresh B cell cocktail was prepared by adding 1 μg/ml of human transferrin to B cell medium (Iscove's medium with 10% PFBS, 1% P/S, and 5 μg/mL human insulin). The required volume of medium needed for the experiment was filtered through a 0.22 micron filter. B cell differentiation cocktail (final concentration) consisting of: recombinant human IL-2 (20 U/mL), IL-10 (50 ng/mL), IL-15 (10 ng/mL), and IL-6 (50 ng/mL) was added to cells. Fresh B cell cocktail was added to cells. Cells were transferred back to the original wells and the volume was adjusted to 5 mL. Five microliters of a 1× solution of compound or DMSO was added to each test well (0.1% final DMSO) and incubated at 37{dot over (◯)}° C. for 3 days.
(§5) On Day 4 and Day 7 cells were harvested and counted on the cell counter. A portion of the cells were then removed for flow analysis and the remaining cells were lysed with RLT buffer and stored at −80° C. for RNA extraction and gene expression. Supernatants were divided into aliquots and frozen at −20° C. for immunoglobulin assays.
(§6) Differentiated B cells (see B Cell Differentiation Assay above) were harvested for total ribonucleic acid (RNA) preparation with a Qiacube RNA extraction instrument (Qiagen, Valencia, Calif.) using QIAGEN RNeasy mini spin-column kits (Catalog #74104). Purified RNA was reverse transcribed into cDNA with thermal cycler (MJ Research, Inc., St. Bruno, Quebec, Canada) using a reverse-transcriptase kit (Applied Biosystems). The gene expression assay was carried out using 7500 real time polymerase chain reaction (RT-PCR) system (Applied Biosystems) in triplicate. A glyceraldehyde 3-phosphate dehydrogenase gene expression assay control was run for each sample and used as a normalization control. For each gene, values for samples within each experiment were normalized to the corresponding 0.1% DMSO treatment value for that particular time point.

BLIMP-1 = assay: Gene expression (RT-PCR) in differentiated B cells; assay type: cell-based, human; conditions: Day 7 differentiated B cells, normalized to 0.1% DMSO; FIG. 3
Description: as §2, §4, §5, §6

IRF-4 = assay: Gene expression (RT-PCR) in differentiated B cells; assay type: cell-based, human; conditions: Day 7 differentiated B cells, normalized to 0.1% DMSO; FIG. 3
Description: as §2, §4, §5, §6

IgJ = assay: Gene expression (RT-PCR) in differentiated B cells; assay type: cell-based, human; conditions: Day 7 differentiated B cells, normalized to 0.1% DMSO; FIG. 3
Description: as §2, §4, §5, §6

OBF-1 = assay: Gene expression (RT-PCR) in differentiated B cells; assay type: cell-based, human; conditions: Day 7 differentiated B cells, normalized to 0.1% DMSO; FIG. 3
Description: as §2, §4, §5, §6

XBP-1 = assay: Gene expression (RT-PCR) in differentiated B cells; assay type: cell-based, human; conditions: Day 7 differentiated B cells, normalized to 0.1% DMSO; FIG. 3
Description: as §2, §4, §5, §6

IgG production = assay: Immunoglobulin assay (ELISA) of plasmablast culture supernatants; assay type: cell-based, human; conditions: during plasmablast differentiation; FIG. 5
Description: as §2
(§7) Cells were harvested and counted on the cell counter, an aliquot was removed for flow analysis, and the remaining cells were washed with phosphate buffered saline (PBS). Fresh B cell cocktail was prepared by adding 1 μg/ml of human transferrin to B cell medium (Iscove's medium with 10% PFBS, 1% P/S, and 5 μg/mL human insulin). […]
as §3
(§8) Supernatants (see B Cell Differentiation Assay above) were harvested and analyzed by ELISA for IgG and IgM production (ZeptoMetrix Corp, Buffalo, N.Y.).

IgM production = assay: as above; assay type: cell-based, human; conditions: during plasmablast differentiation; FIG. 4
Description: as §2, §7, §3, §8

**Q.** `O=C1CC[C@H](N2Cc3c(OCc4ccc(CN5CCOCC5=O)cc4)cccc3C2=O)C(=O)N1` [Compound I-S, (S)-3-(1-oxo-4-((4-((3-oxomorpholino)methyl)benzyl)oxy)isoindolin-2-yl)piperidine-2,6-dione] was tested. Which “percentage of CD20+CD38- activated B cells (ABC)” value [1] did it give?
**A.** Its value is “increased”.

**Q.** And the “percentage of CD20-CD38+ plasmablasts (PB)” value [1]?
**A.** The value was “dose-dependently reduced”.

**Q.** What about the “B cell viability (live cell count)” value (primary human B cells) of the same molecule?
**A.** The value was “reduce B cell viability”.

**Q.** And the “expression of germinal center lineage B cell transcription factor BCL-6” value (BCL-6)?
**A.** Its value is “did not decrease”.

**Q.** What about the “expression of plasma cell lineage transcription factor BLIMP-1” value (BLIMP-1) of the same molecule?
**A.** Its value is “dose-dependently and significantly inhibited”.

**Q.** And the “expression of plasma cell lineage transcription factor IRF-4” value (IRF-4)?
**A.** The value was “dose-dependently and significantly inhibited”.

**Q.** And the “expression of plasma cell lineage transcription factor IgJ” value (IgJ)?
**A.** Its value is “dose-dependently and significantly inhibited”.

**Q.** What about the “expression of plasma cell lineage transcription factor OBF-1” value (OBF-1) of the same molecule?
**A.** Its value is “dose-dependently and significantly inhibited”.

**Q.** What about the “expression of plasma cell lineage transcription factor XBP-1” value (XBP-1) of the same molecule?
**A.** The value was “dose-dependently and significantly inhibited”.

**Q.** And the IgG production (IgG production)?
**A.** The IgG production was “significantly inhibited”.

**Q.** What about the IgM production (IgM production) of the same molecule?
**A.** Its IgM production is “significantly inhibited”.
